Test results: patent US20100317620A1, “N-PHENYLIMIDAZO[1,2-a]PYRIDINE-2-CARBOXAMIDE COMPOUNDS, PREPARATION AND THERAPEUTIC USE THEREOF” (sanofi-aventis, priority 2008, published 2010)
Where a name gives a salt, the structure may show the parent alone.

Molecular target: T1, murine Nurr1 receptor (Mus musculus, UniProt Q06219)
T1 construct: a cell line (N2A) endogenously expressing the murine Nurr1 receptor; host or cells: Neuro-2A (N2A) mouse neuroblastoma cells stably transfected with 8NBRE-luciferase
T1 sequence (Q06219 whole entry): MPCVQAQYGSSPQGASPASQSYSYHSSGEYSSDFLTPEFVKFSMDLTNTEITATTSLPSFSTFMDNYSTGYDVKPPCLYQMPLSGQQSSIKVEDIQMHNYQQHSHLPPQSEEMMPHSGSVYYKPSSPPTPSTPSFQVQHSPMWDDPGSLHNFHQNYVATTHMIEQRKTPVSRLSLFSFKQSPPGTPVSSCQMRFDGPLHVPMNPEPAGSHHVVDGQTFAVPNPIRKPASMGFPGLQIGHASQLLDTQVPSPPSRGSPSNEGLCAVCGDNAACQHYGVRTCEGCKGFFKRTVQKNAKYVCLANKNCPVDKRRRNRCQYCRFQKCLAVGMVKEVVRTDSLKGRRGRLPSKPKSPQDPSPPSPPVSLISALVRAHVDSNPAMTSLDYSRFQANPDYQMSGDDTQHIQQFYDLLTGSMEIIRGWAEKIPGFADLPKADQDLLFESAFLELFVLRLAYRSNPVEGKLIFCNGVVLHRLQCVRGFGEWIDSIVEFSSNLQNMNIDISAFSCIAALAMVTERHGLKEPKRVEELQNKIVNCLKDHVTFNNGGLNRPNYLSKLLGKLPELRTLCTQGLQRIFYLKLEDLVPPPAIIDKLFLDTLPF
Assay: In vitro activity on N2A cells (8NBRE-luciferase reporter)
Format: cell-based
Settings: N2A cell line endogenously expressing murine Nurr1, stably transfected with NBRE-luciferase; 24 hours incubation
Description: Evaluation of the In Vitro Activity on N2A Cells
The activity of the compounds according to the invention was evaluated on a cell line (N2A) endogenously expressing the murine Nurr1 receptor and stably transfected with the NOT binding response element (NBRE) coupled to the luciferase reporter gene. The EC50 values are between 0.01 and 1000 nM. The tests were performed according to the procedure described hereinbelow.
The cell line Neuro-2A is obtained from a standard commercial source (ATCC). The clone Neuro-2A was obtained from a spontaneous tumour originating from a strain of albino mice A by R. J Klebe et al. This line Neuro-2A is then stably transfected with 8NBRE-luciferase. The N2A-8NBRE cells are cultured to the point of confluence in 75 cm^2 culture flasks containing DMEM supplemented with 10% foetal calf serum, 4.5 g/L of glucose and 0.4 mg/ml of geneticin. After culturing for one week, the cells are recovered with 0.25% trypsin for 30 seconds and then resuspended in DMEM without phenol red, containing 4.5 g/L of glucose and 10% Hyclone defatted serum, and placed in white, transparent-based 96-well plates. The cells are deposited at a rate of 60 000 per well in 75 μL for 24 hours before adding the products. The products are applied in 25 μL and incubated for a further 24 hours. On the day of measurement, an equivalent volume (100 μL) of Steadylite is added to each well, and the wells are then left for 30 minutes to obtain complete lysis of the cells and maximum production of the signal. The plates are then measured in a microplate luminescence counter, after having been sealed with an adhesive film. The products are prepared in the form of a 10^−2 M stock solution, and then diluted in 100% of DMSO. Each concentration of product is prediluted in culture medium before incubation with the cells thus containing 0.625% final of DMSO.

Q: “6-(Isopropylamino)-N-phenylimidazo[1,2-a]pyridine-2-carboxamide and its hydrochloride (1:1) [Example 2]” was tested. Which EC50 did it give?
A: 1.6 nM

Q: `CS(=O)(=O)c1ccc2nc(C(=O)Nc3ccccc3)cn2c1` [Example 16, 6-(Methylsulfonyl)-N-phenylimidazo[1,2-a]pyridine-2-carboxamide and its hydrobromide (1:1)] was tested. Which EC50 did it give?
A: 16 nM

Q: With `CSc1ccc2nc(C(=O)Nc3ccccc3)cn2c1` [Example 14, 6-(Methylthio)-N-phenylimidazo[1,2-a]pyridine-2-carboxamide and its hydrobromide (1:1)] as the compound, how does the EC50 read?
A: 2 nM
